Data: ChEMBL document CHEMBL1123627, “Effect of beta-alkyl substitution on D-1 dopamine agonist activity: absolute configuration of beta-methyldopamine” (1987)

How the values were obtained:
Assay type in all cases: functional
Rattus norvegicus [1] = species: Rattus norvegicus; assay: Ability to stimulate the production of cyclic AMP by rat retinal adenylate cyclase at a concentration of 0.1 uM
Rattus norvegicus [2] = species: Rattus norvegicus; assay: Ability to stimulate the production of cyclic AMP by rat retinal adenylate cyclase at a concentration of 1 uM
Rattus norvegicus [3] = species: Rattus norvegicus; assay: Ability to stimulate the production of cyclic AMP by rat retinal adenylate cyclase at a concentration of 10 uM

| Structure (SMILES) | Stimulation (Rattus norvegicus [1]) | Stimulation (Rattus norvegicus [2]) | Stimulation (Rattus norvegicus [3]) |
| --- | --- | --- | --- |
| C[C@H](CN)c1ccc(O)c(O)c1 | 1.6% | 11.7% | 39.1% |
| NCC(c1ccccc1)c1ccc(O)c(O)c1 (stereo not given) | 4.9% | 16.3% | 97.1% |
| CC(CN)c1ccc(O)c(O)c1 (racemic) | 5.9% | -3.5% | 10.5% |
| CC(CN)c1ccc(O)c(O)c1 (single isomer, unassigned) | 1.5% | 6% | 41% |
| NCCc1ccc(O)c(O)c1 [DOPAMINE] | 31.4% | 106.4% | 205.4% |
